Laboratory results as given in US4642364A, “Unsaturated eicosanoic acids” (Hoffmann-La Roche Inc., priority 1986, dated 1987).

How the values were obtained:
[1] = target: T1, Prostaglandin endoperoxide synthase (Ovis aries, UniProt P05979); assay: Prostaglandin endoperoxide synthase (PES) assay, oxygen uptake with sheep seminal vesicular gland microsomes; assay type: biochemical; conditions: 33 μM arachidonic acid, pH 8.5
T1 construct: sheep seminal vesicular gland microsomes (SSVM) as the enzyme source; from tissue; host or cells: sheep seminal vesicular gland microsomes, acetone powder
T1 sequence (P05979 25-600): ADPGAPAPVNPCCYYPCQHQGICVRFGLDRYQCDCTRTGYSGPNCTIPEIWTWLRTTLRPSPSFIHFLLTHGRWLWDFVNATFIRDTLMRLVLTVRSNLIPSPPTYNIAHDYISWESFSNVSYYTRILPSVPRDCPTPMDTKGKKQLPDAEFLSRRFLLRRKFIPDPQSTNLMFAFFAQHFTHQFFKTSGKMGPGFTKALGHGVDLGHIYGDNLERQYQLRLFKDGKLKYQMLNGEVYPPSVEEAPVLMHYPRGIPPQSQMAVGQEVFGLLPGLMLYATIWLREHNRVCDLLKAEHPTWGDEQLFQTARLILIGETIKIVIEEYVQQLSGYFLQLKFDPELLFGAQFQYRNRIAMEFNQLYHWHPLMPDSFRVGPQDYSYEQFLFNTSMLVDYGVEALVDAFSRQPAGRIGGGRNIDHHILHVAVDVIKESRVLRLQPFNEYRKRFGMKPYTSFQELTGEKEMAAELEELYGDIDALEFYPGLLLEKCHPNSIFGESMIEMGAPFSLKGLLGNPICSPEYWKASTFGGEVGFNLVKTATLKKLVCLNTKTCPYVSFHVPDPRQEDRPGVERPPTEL
Description: The activity of PES was measured polarigraphically by following the disappearance of dissolved O2 from incubation mixtures containing arachidonic acid (AA) as substrate and sheep seminal vesicular gland microsomes (SSVM) as the enzyme source. Fifty mg of an acetone powder of SSVM were suspended, using a glass teflon homogenizer, in 1 ml of 0.1M tris. HCl (pH, 8.5) containing 0.67 mM phenol. This suspension of SSVM was incubated at room temperature in the presence of phenol to maximumly activate the PES and then the suspension was kept at 0°. Samples in a separate reaction vessel were each prepared by adding tris-phenol buffer (2.8 ml), 0.05 ml of the SSVM suspension, and a maximum of 0.12 ml of ethanol containing various concentrations of the test drug. […] Reaction vessels were then allowed to reach temperature equilibrium. An oxygen electrode is inserted into the vessel and then 24 μl of 4.1 mM AA are injected into the sealed vessel through a port on the side of the electrode. The final concentration of AA is 33 μM. Oxygen uptake is recorded and the initial rate of oxygen uptake used as a measure of PES activity. Each of the test compounds were tested initially at a high concentration (1 mM) and then, if required, dilutions are made. The mean percent inhibition was obtained for each concentration of the various test drugs by expressing as a percent the number obtained by dividing the difference of the oxygen uptake of the test sample by the oxygen uptake of the control. The concentration of test drug which inhibits the synthesis of PES by 50% (IC50) which is given in the following table was determined for each test drug from a plot of mean percent inhibition verses drug concentration. The difference of the oxygen uptake of test sample was obtained by subtracting from the oxygen uptake of the control, the oxygen uptake of the test sample.

[2] = test system: SRS-A synthesis (Rat Peritoneal Cells); assay: Inhibition of the in vitro synthesis of SRS-A in rat peritoneal cells (ionophore A23187 challenge, guinea pig ileum bioassay); assay type: cell-based, rat (male Sprague-Dawley); conditions: for inhibition at 10 µM: p values given
Text: To study the effect of drugs on SRS-A synthesis in rat peritoneal cells, these cells (including mast cells, monocytes, eosinophils and neutrophils)were isolated from male Sprague-Dawley rats (Charles River Laboratories) weighing 180-220 g by the lavage procedure described by Herzig, D. J. and Kusner, E. J., Journal of Pharmacology and Experimental Therapeutics, 194, 457-462 (1975) with the exception that Hanks balanced salt solution used in these experiments was adjusted to pH 6.9 with 5% (V/V) of 0.1M aqueous phosphate buffer and contained 50 m/gml sodium heparin. After removal from the peritoneal cavity of rats, the cells were subsequently isolated by centrifugation at 400×gravity for 10 minutes at 4° C. and resuspended to a concentration of about 2,000,000 cells per ml in Hanks buffer.
Samples for evaluation were prepared by adding various concentrations of test drugs to 2 ml aliquots of the resuspended cells in Hanks buffer. The 2 ml samples used for control contained 2 ml aliquots of resuspended cells in Hanks buffer without drugs. All of the above samples (2 ml final volume) were preincubated at 37° C. for 10 minutes in the presence of varying concentrations of test drug prior to challenge with 5×10^-7 M ionophore […]. This ionophore is disclosed in Burka and Flower, Br. J. Pharmacology 65: 35-41 (1979). Antibiotic A23187 was used as a probe for the study of calcium and magnesium function in biological systems. After ionophore challenge, SRS-A was synthesized in the samples by the cells for 10 minutes (at 37° C.) after which this synthesis was terminated by placing the samples in a boiling water bath for 10 minutes followed by centrifugation at 2,000×g (10 minutes) at 4° C. to remove coagulated protein and cellular debris. The SRS-A present in the resulting supernatants was quantitated by a bioassay using a guinea pig ileum as described in Orange, and Austen, Adv. Immunol. 10: 105-144 144 (1969). For this bioassay, a 1.5 cm segment of ileum was removed from animals weighing 300 to 400 g and suspended in an organ bath containing 10 ml of Tyrodes solution with 10^-6 M atropine sulfate and 10^-6 M pyrilamine maleate. The bath was maintained at 37° C. and aerated with a mixture of 95% O2 and 5%CO2. The concentration of SRS-A in the experimental samples was determined by a comparison of the isotonic contraction responses elicited by the samples with those obtained with varying amounts of an SRS-A standard solution prepared from chopped guinea pig lung as disclosed in Hitchcock, M. J. Pharmacol. Exp. Ther. 207: 630-640 (1978) and quantituted by the procedures of Orange, R. R. and Austen, K. F. Adv. Immunol. 10: 105-144 (1969) against histamine (1 unit of SRS-A being that amount which gives a contractile response similar to that of […] of histamine). In the absence of drug, the ionophore A23187-induced SRS-A synthesis varied between 40 to 50 units of SRS-A per 10^6 cells. In the presence of increasing concentrations of test drug, there was a concentration-related decrease in SRS-A synthesis. [formula] at each concentration of the various test drugs was calculated. The concentration of test drug which inhibits the synthesis of SRS-A by 50% (IC50) was determined for each test drug from a plot of the mean percent inhibition versus the log of drug concentration. The difference of units of SRS-A in the test sample used in the fraction given above was obtained by subtracting from the units of SRS-A in the control from the actual measurement of the units of SRS-A in the sample.

[3] = target: T1, Prostaglandin endoperoxide synthase; conditions: statement on standard; cited from earlier work
[4] = target: T2, Δ^12-lipoxygenase (Human Platelet) (Homo sapiens, UniProt P18054); conditions: statement on standard; cited from earlier work
T2 construct: using human platelets as the enzyme source; from tissue; host or cells: human platelets (washed, lysed by freezing and thawing; 100,000×g supernatant, 50% ammonium sulfate precipitate)
T2 sequence (P18054 1-663): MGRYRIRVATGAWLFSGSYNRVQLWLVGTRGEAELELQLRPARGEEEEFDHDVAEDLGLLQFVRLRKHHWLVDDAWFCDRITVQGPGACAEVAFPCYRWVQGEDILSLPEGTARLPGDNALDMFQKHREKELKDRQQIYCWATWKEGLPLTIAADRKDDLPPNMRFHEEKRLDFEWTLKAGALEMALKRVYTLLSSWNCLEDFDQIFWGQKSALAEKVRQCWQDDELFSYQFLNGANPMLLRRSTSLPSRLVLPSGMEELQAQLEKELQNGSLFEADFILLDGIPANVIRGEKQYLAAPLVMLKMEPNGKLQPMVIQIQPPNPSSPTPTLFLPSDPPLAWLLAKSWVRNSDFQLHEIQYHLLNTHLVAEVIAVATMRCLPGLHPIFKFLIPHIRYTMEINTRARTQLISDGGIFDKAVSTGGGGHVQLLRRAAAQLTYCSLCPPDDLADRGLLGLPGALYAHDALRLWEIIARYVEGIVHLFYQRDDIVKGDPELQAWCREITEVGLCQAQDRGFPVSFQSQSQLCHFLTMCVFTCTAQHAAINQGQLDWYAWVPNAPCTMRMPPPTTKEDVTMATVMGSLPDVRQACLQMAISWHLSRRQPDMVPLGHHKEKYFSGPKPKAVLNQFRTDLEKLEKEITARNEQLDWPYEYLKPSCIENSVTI

[5] = test system: SRS-A synthesis (Rat Peritoneal Cells); conditions: statement on standard; cited from earlier work
[6] = target: T2, Δ^12-lipoxygenase (Human Platelet); assay: Δ^12-lipoxygenase assay (conversion of 14C-arachidonic acid to 12-HETE, human platelet enzyme); assay type: biochemical; conditions: 3-4 μM arachidonic acid
Description: Δ^12 -lipoxygenase activity was measured by following the conversion of ^14 C-arachidonic acid (AA) to ^14 C-12-hydroxy-5,8,10,14-eicosatetraenoic acid (12-HETE) using human platelets as the enzyme source. Washed human platelets from approximately 2000 ml of blood were suspended in 50 ml of phosphate buffered saline (PBS) and then lysed by freezing and thawing (3 times). The platelet lysate was homogenized using a glass-teflon homogenizer and then particulate material was sedimented by centifugation at 100,000×g for 1 hr and the sediment was discarded. The supernatant was made 50% by weight saturated with respect to (NH4)2 SO4 by adding solid ammonium sulfate. The resultant suspension was allowed to stand at 0° overnight. The precipitate was collected by centrifugation and was dissolved in approximately 25 ml of PBS. This solution was the enzyme solution utilized to catalyze the conversion of AA to 12 HETE.
In order to test the compounds, separate incubation tubes for each of the compounds and for concentrations of these compounds were prepared in an ice bath. These tubes each contained 140 μl of PBS containing 1.78 mM glutathione, 10 μl of test drug in ethanol, 50 μl of platelet supernatant, and 50 μl of ^14 C-AA. […] Incubation tubes were prepared containing only buffer ethanol and ^14 c-AA were included as substrate controls. The final concentration of AA added as its ammonium salt in PBS, in each of the incubation tubes 3-4 μM. Sufficient enzyme solution prepared as above was added so that, under the conditions of the assay, approximately 80-90% by weight of the ^14 C-AA was converted to 12-HETE, as determined by prior controls. The tubes were incubated at 37° for 2 min, the reaction was stopped by the addition, while mixing on a mixer, of 2 ml of diethyl ether and 50 μl of 1M citric acid. The ether in the presence of citric acid extracted 12-HETE and AA from enzyme in the reaction medium in each of the samples. The ether extract was evaporated to dryness under nitrogen and then the residue was dissolved in 50 μl of chloroform:methanol (2:1 parts by volume). The dissolved residue containing 12-HETE and AA was applied, as rapidly as possible, to a glass fiber sheet impregnated with silica gel and then the chromatogram was developed using isooctane:methylethylketone:acetic acid (100:9:1 parts by volume) as solvent. Radioactive products and unconverted ^14 C-AA were located using a thin-layer chromatography scanner. The appropriate regions of the chromatogram were cut out, then the radioactivity quantitated using a liquid scintillation counter. The amount of ^14 C-AA converted to product is used as a measure of Δ^12 -lipoxygenase activity.
The mean percent inhibition was calculated by multiplying 100 times the following fraction: [formula] at each concentration of the various test drugs was calculated.

| SMILES | IC50 [1] [µM] | IC50 [2] [µM] | inhibition at 10 µM [2] [%] | inhibition of prostaglandin endoperoxide synthase (in words) [3] | inhibition of Δ^12-lipoxygenase (in words) [4] | inhibition of SRS-A synthesis (in words) [5] | IC50 [6] [µM] |
| --- | --- | --- | --- | --- | --- | --- | --- |
| CCCCCC#CCC#CCC#CCC#CCCCC(=O)O [5,8,11,14-Eicosatetraynoic Acid, reference compound] | 5 | 3 to 4 | 100 | potent inhibitor | potent inhibitor | standard potent inhibitor of SRS-A synthesis |  |
| CCCCCC#CCC#CCCCCCCCC(=O)O [9,12-Octadecadiynoic Acid, reference compound] | 0.1 to 1 | 3 | 87 ± 1 | potent standard inhibitor | not being an inhibitor of Δ^12 lipoxygenase | potent standard inhibitor of SRS-A synthesis | ≥ 100 |
| CCCCC/C=C\C/C=C\CC#CCC#CCCCC(=O)O [Compound 3, (Z,Z)-11,14-eicosadien-5,8-diynoic acid] | 10 to 100 |  | 81 ± 6 |  |  |  | 10 to 100 |
| CCCCC/C=C\C/C=C\CC#CCC#CCCCC(=O)OC [Compound 4, (Z,Z)-11,14-eicosadien-5,8-diynoic acid methyl ester] |  | < 10 | 85 ± 8 |  |  |  | 10 to 100 |
| CCCCCCCC/C=C\CC#CCC#CCCCC(=O)O [Compound 5, (Z,Z)-11-eicosen-5,8-diynoic acid] | > 100 | 1 to 3 | 100 |  |  |  | 13 |
| CCCCC/C=C\CCCCC#CCC#CCCCC(=O)O [Compound 6, (Z)-14-eicosen-5,8-diynoic acid] | > 100 | 1 to 3 | 100 |  |  |  | ~100 |
| CCCCC/C=C\CCCCC#CCC#CCCCC1=NC(C)(C)CO1 [Compound 7, 2[(Z)-13-nonadecen-4,7-diynyl]-4,5-dihydro-4,4-dimethyloxazole] |  | < 10 | 86 ± 8 |  |  |  | ~100 |
| CCCCC/C=C\CCCCC#CCC#CCCC(F)C1=NC(C)(C)CO1 (stereo not drawn) [Compound 8, 2-(1-fluorononadec-13(Z)-en-4,7-diynyl)-4,5-dihydro-4,4-dimethyloxazole] |  | < 10 | 88 ± 6 |  |  |  | > 100 |
